The target in the experiment is T1, 5-lipoxygenase (5-LO) (Homo sapiens, UniProt P09917).
T1 sequence (P09917 1-674): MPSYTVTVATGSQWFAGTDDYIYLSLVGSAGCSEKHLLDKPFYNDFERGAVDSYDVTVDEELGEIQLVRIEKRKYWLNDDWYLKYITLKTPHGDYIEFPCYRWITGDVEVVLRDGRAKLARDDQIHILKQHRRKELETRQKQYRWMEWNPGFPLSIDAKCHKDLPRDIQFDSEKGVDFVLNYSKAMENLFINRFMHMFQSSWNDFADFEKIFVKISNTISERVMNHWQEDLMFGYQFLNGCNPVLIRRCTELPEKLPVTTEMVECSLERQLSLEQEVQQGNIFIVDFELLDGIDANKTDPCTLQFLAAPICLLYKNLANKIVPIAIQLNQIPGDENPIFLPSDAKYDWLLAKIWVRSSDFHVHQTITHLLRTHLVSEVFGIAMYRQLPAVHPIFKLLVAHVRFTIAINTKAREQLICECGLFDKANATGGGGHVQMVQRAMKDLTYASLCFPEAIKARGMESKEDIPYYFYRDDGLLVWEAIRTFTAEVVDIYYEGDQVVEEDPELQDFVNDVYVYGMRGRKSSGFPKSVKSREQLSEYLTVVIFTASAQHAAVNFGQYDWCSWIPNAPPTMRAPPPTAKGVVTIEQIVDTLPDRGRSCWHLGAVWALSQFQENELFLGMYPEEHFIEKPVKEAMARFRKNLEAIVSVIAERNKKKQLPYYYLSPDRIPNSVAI
Briefly: cell-free 5-LO activity assay with arachidonic acid, products by HPLC. It is filed as biochemical.

Here are results for one molecule from publication PMC3928003 (Cardiovascular Research, 2013).

`O=C1Nc2ccccc2/C1=C1/Nc2ccccc2/C1=N\O` [I3MO, Indirubin-3′-monoxime] yielded an IC50 of 7.8 to 10 µM.
